Assay results: US10294202B2, “Pyrrolidinones as herbicides” (FMC Corporation, priority 2013, dated 2019)
Read-outs that look alike come from different tables or passages of the source.

How the values were obtained:
waterhemp = assay: Test C pre-/postemergence herbicide test; type: in vivo, Amaranthus rudis
Procedure, shortened: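 Pre-emergence: seeds sown in loam/sand blend and treated with compound in surfactant-containing solvent. Post-emergence: plants at 2–18 cm (1- to 4-leaf stage) in peat-based medium sprayed with the same formulation. Visual rating versus controls after 13–15 days in greenhouse, scale 0 (no effect) to 100 (complete control).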

chickweed = assay: Test C postemergence herbicide test; type: in vivo, Stellaria media
Text: At the same time, plants selected from these crop and weed species and also barley (winter barley, Hordeum vulgare), […]), chickweed (common chickweed, Stellaria media), deadnettle (henbit deadnettle, Lamium amplexicaule), and canarygrass (littleseed canarygrass, Phalaris minor) were planted in pots containing Redi-Earth® planting medium (Scotts Company, 14111 Scottslawn Road, Marysville, Ohio 43041) comprising spaghnum peat moss, vermiculite, wetting agent and starter nutrients and treated with postemergence applications of test chemicals formulated in the same manner. Plants ranged in height from 2 to 18 cm (1- to 4-leaf stage) for postemergence treatments. Treated plants and controls were maintained in a greenhouse for 13 to 15 days, after which time all species were compared to controls and visually evaluated. Plant response ratings, summarized in Table C, are based on a scale of 0 to 100 where 0 is no effect and 100 is complete control. A dash (-) response means no test result.

barnyardgrass [1] = assay: Test C flooded paddy test; type: in vivo, Echinochloa crus-galli; settings: Flood
Procedure, shortened: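 Visual ratings from 0, no effect, to 100, complete control, were made against untreated controls after 13–15 greenhouse days. Compounds had gone straight into paddy water 3 cm above the soil, kept at that depth, on 2-leaf-stage plants.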

giant foxtail = assay: Test A pre-/postemergence herbicide test; type: in vivo, Setaria faberii; settings: for pest or weed control at 1000 g/ha: 1000 g ai/ha
Procedure, shortened: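 Seeds in loam–sand blend received preemergence directed soil spray; separately, plants 2–10 cm at one- to two-leaf stage received postemergence spray, both with test chemicals in non-phytotoxic solvent with surfactant. After ~10 days in greenhouse, injury rated visually against untreated controls, 0 (no effect) to 100 (complete control).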

barnyardgrass [2] = assay: Test B flooded paddy test; type: in vivo, Echinochloa crus-galli; settings: Flood, scale of 0 to 100 where 0 is no effect and 100 is complete control
Procedure, shortened: (§1)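 First, plants reach the 2-leaf stage; next, pots are flooded to 3 cm and compound is delivered into the water; finally, after 13 to 15 greenhouse days at constant depth, injury is graded visually from 0 to 100 against controls.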

sedge, umbrella = assay: Test B flooded paddy test; type: in vivo, Cyperus difformis; settings: Flood, scale of 0 to 100 where 0 is no effect and 100 is complete control
Procedure, shortened: as §1

[3] = Postemergence, 31 g ai/ha, scale 0 (no effect) to 100 (complete control)
[4] = Postemergence, 62 g ai/ha, scale 0 to 100 (0 no effect, 100 complete control)
[5] = Postemergence, 125 g ai/ha, scale 0 to 100 (0 no effect, 100 complete control)
[6] = Postemergence, 250 g ai/ha, scale 0 to 100 (0 no effect, 100 complete control)
[7] = Preemergence, 31 g ai/ha, scale 0 to 100, 0 is no effect and 100 is complete control
[8] = Preemergence, 62 g ai/ha, scale 0 to 100
[9] = Preemergence, 125 g ai/ha, scale 0 to 100 (0 no effect, 100 complete control)
[10] = 31 g ai/ha, scale 0 (no effect) to 100 (complete control)
[11] = 62 g ai/ha, scale 0 to 100 (0 no effect, 100 complete control)
[12] = 125 g ai/ha, scale 0 to 100 (0 no effect, 100 complete control)
[13] = 250 g ai/ha, scale 0 to 100 (0 no effect, 100 complete control)
[14] = 125 g ai/ha, scale of 0 to 100 where 0 is no effect and 100 is complete control, 13 to 15 days
[15] = Postemergence, 500 g ai/ha, 0 to 100 scale (0 no effect, 100 complete control)
[16] = Preemergence, 125 g ai/ha, visual rating on 0 to 100 scale (0 no effect, 100 complete control)
[17] = Preemergence, 62 g ai/ha, scale 0 to 100 (0 no effect, 100 complete control)
[18] = Preemergence, 125 g ai/ha, scale 0 to 100
[19] = Postemergence, 125 g ai/ha, visual rating on 0 to 100 scale (0 no effect, 100 complete control), approx. 10 days
[20] = Preemergence, 125 g ai/ha, 0 to 100 scale where 0 is no effect and 100 is complete control
[21] = Preemergence, 500 g ai/ha, visual rating on 0 to 100 scale (0 no effect, 100 complete control)

| SMILES | Plant response rating, Waterhemp (waterhemp; [3]) | Plant response rating, Waterhemp (waterhemp; [4]) | Plant response rating, Waterhemp (waterhemp; [5]) | Plant response rating, Waterhemp (waterhemp; [6]) | Waterhemp plant response rating (waterhemp; [7]) | Plant response rating, Waterhemp (waterhemp; [8]) | Plant response rating, Waterhemp (waterhemp; [9]) | Plant response rating (scale of 0 to 100), Waterhemp (waterhemp; Preemergence, 250 g ai/ha) | Plant response rating, Chickweed (chickweed; [10]) | Plant response rating, Chickweed (chickweed; [11]) | Plant response rating, Chickweed (chickweed; [12]) | Plant response rating, Chickweed (chickweed; [13]) | Plant response rating, Barnyardgrass (barnyardgrass [1]; [14]) | Plant response rating, Barnyardgrass (barnyardgrass [1]; 250 g ai/ha, scale 0 to 100) | Plant response rating, Foxtail, Giant (giant foxtail; [15]) | Foxtail, Giant plant response rating (giant foxtail; [16]) | Waterhemp plant response rating (waterhemp; [17]) | Plant response rating, Waterhemp (waterhemp; [18]) | Plant response rating, Foxtail, Giant (giant foxtail; [19]) | Plant response rating, Foxtail, Giant (giant foxtail; [20]) | other results |
| --- | --- | --- | --- | --- | --- | --- | --- | --- | --- | --- | --- | --- | --- | --- | --- | --- | --- | --- | --- | --- | --- |
| O=C1NCC(c2ccc(F)c(F)c2)C1C(=O)Nc1cccc(F)c1F (racemic) [Compound 101] | 0 | 5 | 20 | 35 | 50 | 70 | 50 | 85 | 35 | 60 | 70 | 80 | 20 | 55 | 90 | 90 | – | – | – | – | Plant response rating, Barnyardgrass (barnyardgrass [1]; 500 g ai/ha, scale 0 to 100): 60; Plant response rating, Barnyardgrass (barnyardgrass [1]; 1000 g ai/ha, scale 0 to 100): 75; Plant response rating, Foxtail, Giant (giant foxtail; Postemergence, 125 g ai/ha, 0 to 100 scale, 0 no effect, 100 complete control): 80; Plant response rating, Foxtail, Giant (giant foxtail; preemergence, 500 g ai/ha, 0 to 100 scale): 90 |
| O=C1NCC(c2ccc(F)c(F)c2)C1C(=O)Nc1cccc(F)c1F (centres unmarked) [Compound 17, N-(2,3-difluorophenyl)-4-(3,4-difluorophenyl)-2-oxo-3-pyrrolidinecarboxamide] | – | – | – | – | – | – | – | – | 0 | 0 | 0 | 10 | 20 | 25 | – | – | – | – | – | – | Plant response rating, Barnyardgrass (barnyardgrass [1]; 31 g ai/ha, scale of 0 to 100 where 0 is no effect and 100 is complete control, 13 to 15 days): 0; Plant response rating, Barnyardgrass (barnyardgrass [1]; 62 g ai/ha, scale of 0 to 100 where 0 is no effect and 100 is complete control, 13 to 15 days): 0; pest or weed control at 1000 g/ha (giant foxtail; Setaria faberi, post-emergence, 240 h, Postemergence, 0 to 100 scale (0 no effect, 100 complete control), read-out: Plant response rating, Foxtail, Giant): 90%; pest or weed control at 1000 g/ha (giant foxtail; Setaria faberi, pre-emergence, 240 h, Preemergence, visual rating on 0 to 100 scale (0 no effect, 100 complete control), approx. 10 days, read-out: Plant response rating, Foxtail, Giant): 90% |
| O=C1NCC(c2ccc(C(F)(F)F)cc2)C1C(=O)Nc1ccccc1F (centres unmarked) [Compound 79, N-(2-fluorophenyl)-2-oxo-4-[4-(trifluoromethyl)phenyl]-3-pyrrolidinecarboxamide] | 10 | 10 | 10 | 30 | 25 | 40 | 80 | 85 | 60 | 80 | 90 | 90 | – | – | – | 90 | – | – | – | – | Plant response rating, Barnyardgrass (barnyardgrass [2]; 250 g ai/ha): 0; Plant response rating, Sedge, Umbrella (sedge, umbrella; 250 g ai/ha): 0; pest or weed control at 125 g/ha (giant foxtail; Setaria faberi, post-emergence, 240 h, Postemergence, 125 g ai/ha, 0 to 100 scale, 0 no effect, 100 complete control, read-out: Plant response rating, Foxtail, Giant): 80%; pest or weed control at 500 g/ha (giant foxtail; Setaria faberi, post-emergence, 240 h, Postemergence, 500 g ai/ha, 0 to 100 scale (0 no effect, 100 complete control), read-out: Plant response rating, Foxtail, Giant): 80%; pest or weed control at 500 g/ha (giant foxtail; Setaria faberi, pre-emergence, 240 h, preemergence, 500 g ai/ha, 0 to 100 scale, read-out: Plant response rating, Foxtail, Giant): 90% |
| O=C1NCC(c2cccc(Br)c2)C1C(=O)Nc1ccc(F)c(F)c1F (centres unmarked) [Compound 310] | – | – | 10 | 10 | – | – | – | 25 | – | – | 90 | 85 | – | – | 90 | – | 0 | 25 | 90 | 90 | Plant response rating, Barnyardgrass (barnyardgrass [2]; 500 g ai/ha): 60; Plant response rating, Waterhemp (waterhemp; Postemergence, 31 g ai/ha, scale 0 to 100 (0 no effect, 100 complete control)): 5; Plant response rating, Waterhemp (waterhemp; Postemergence, 62 g ai/ha, scale 0 (no effect) to 100 (complete control)): 10; Plant response rating, Chickweed (chickweed; 31 g ai/ha, scale 0 to 100 (0 no effect, 100 complete control)): 20; Plant response rating, Chickweed (chickweed; 62 g ai/ha, scale 0 (no effect) to 100 (complete control)): 45; Plant response rating, Sedge, Umbrella (sedge, umbrella; 500 g ai/ha): 0; Foxtail, Giant plant response rating (giant foxtail; [21]): 90 |
| O=C1NCC(c2cccc(C(F)(F)F)c2)C1C(=O)Nc1ccc(F)c(F)c1F (centres unmarked) [Compound 345] | – | – | – | – | – | – | – | – | – | – | – | 30 | – | – | 90 | – | 5 | 40 | 90 | 90 | Plant response rating, Barnyardgrass (barnyardgrass [2]; 1000 g ai/ha): 0; Plant response rating, Sedge, Umbrella (sedge, umbrella; 1000 g ai/ha): 0; Foxtail, Giant plant response rating (giant foxtail; [21]): 90 |
